According to ChEMBL document CHEMBL4507263, “Data for DCP probe BAY-474” (2021):
pKi: −log10 of the molar value. Activity calls are given as the source filed them. The calls are words filed in the database; no cut-off is given here.

Assays:
[1] = biological target: Hepatocyte growth factor receptor (Homo sapiens, UniProt P08581); assay: Cellular mechanistic assay using […] cells and p-MET; format: cell-based, MKN-45
[2] = biological target: Tyrosine-protein kinase BTK (Homo sapiens) (UniProt Q06187); assay: BTK (h) Millipore kinase activity assay; conditions: Compound concentration 1.0 uM
[3] = biological target: High affinity nerve growth factor receptor (Homo sapiens) (UniProt P04629); assay: TrkA (h) Millipore kinase activity assay; conditions: Compound concentration 1.0 uM
[4] = biological target: BDNF/NT-3 growth factors receptor (Homo sapiens) (UniProt Q16620); assay: TrkB (h) Millipore kinase activity assay; conditions: Compound concentration 1.0 uM
[5] = biological target: Serine/threonine-protein kinase 4 (Homo sapiens) (UniProt Q13043); assay: MST1 (h) Millipore kinase activity assay; conditions: Compound concentration 1.0 uM
[6] = biological target: Glutamate receptor ionotropic, kainate (Rattus norvegicus) (UniProt P22756+Q01812+P42260+P42264+Q63273); assay: Inhibition of Glutamate, Kainate at 10 µM in the Eurofins-Panlabs radioligand binding assay (Eurofins_assay_232700); conditions: Compound concentration 10.0 uM
[7] = biological target: PAS domain-containing serine/threonine-protein kinase (Homo sapiens) (UniProt Q96RG2); assay: PASK (h) Millipore kinase activity assay; conditions: Compound concentration 1.0 uM
[8] = biological target: Mitogen-activated protein kinase 1 (Homo sapiens) (UniProt P28482); assay: MAPK1 (h) Millipore kinase activity assay; conditions: Compound concentration 1.0 uM
[9] = biological target: CDK7/Cyclin H/MNAT1 (Homo sapiens) (UniProt P51946+P50613+P51948); assay: CDK7/cyclinH/MAT1 (h) Millipore kinase activity assay; format: protein-complex assay; conditions: Compound concentration 1.0 uM
[10] = biological target: Serine/threonine-protein kinase MRCK alpha (Homo sapiens) (UniProt Q5VT25); assay: MRCKalpha (h) Millipore kinase activity assay; conditions: Compound concentration 1.0 uM
[11] = biological target: Tyrosine-protein kinase SYK (Homo sapiens) (UniProt P43405); conditions: Compound concentration 1000.0 nM
[12] = biological target: Vascular endothelial growth factor receptor 1 (Homo sapiens) (UniProt P17948); conditions: Compound concentration 1000.0 nM
[13] = system: Proto-oncogene tyrosine-protein kinase receptor Ret (Homo sapiens), P07949 [M918T]; conditions: Compound concentration 1000.0 nM
[14] = biological target: Tyrosine-protein kinase Srms (Homo sapiens) (UniProt Q9H3Y6); conditions: Compound concentration 1000.0 nM
[15] = biological target: 5-hydroxytryptamine receptor 1D (Homo sapiens) (UniProt P28221); conditions: Compound concentration 10.0 uM
[16] = biological target: 5-hydroxytryptamine receptor 2C (Homo sapiens, UniProt P28335); assay: GPCRScan assay: inhibition of 5-HT2C; design: radioligand conc. used [nm] 1.0 – 2.5, parental cells HEK T
[17] = biological target: NUAK family SNF1-like kinase 2 (Homo sapiens) (UniProt Q9H093); conditions: Compound concentration 1000.0 nM
[18] = system: Tyrosine-protein kinase ABL1 (Homo sapiens), P00519 [H396P]; conditions: Compound concentration 1000.0 nM
[19] = biological target: Cyclin-dependent kinase 4 (Homo sapiens) (UniProt P11802); conditions: Compound concentration 1000.0 nM
[20] = biological target: Serine/threonine-protein kinase 38-like (Homo sapiens) (UniProt Q9Y2H1); conditions: Compound concentration 1000.0 nM
[21] = biological target: Macrophage colony-stimulating factor 1 receptor (Homo sapiens) (UniProt P07333); conditions: Compound concentration 1000.0 nM
[22] = biological target: SRSF protein kinase 2 (Homo sapiens) (UniProt P78362); conditions: Compound concentration 1000.0 nM
[23] = biological target: Serine/threonine-protein kinase MRCK gamma (Homo sapiens) (UniProt Q6DT37); conditions: Compound concentration 1000.0 nM
[24] = biological target: Aurora kinase A (Homo sapiens) (UniProt O14965); conditions: Compound concentration 1000.0 nM
[25] = biological target: Serine/threonine-protein kinase OSR1 (Homo sapiens) (UniProt O95747); conditions: Compound concentration 1000.0 nM
[26] = system: Phosphatidylinositol 4,5-bisphosphate 3-kinase catalytic subunit alpha isoform (Homo sapiens), P42336 [H1047Y]; conditions: Compound concentration 1000.0 nM
[27] = biological target: Tyrosine-protein kinase receptor TYRO3 (Homo sapiens) (UniProt Q06418); conditions: Compound concentration 1000.0 nM
[28] = biological target: Serine/threonine-protein kinase Nek6 (Homo sapiens) (UniProt Q9HC98); conditions: Compound concentration 1000.0 nM
[29] = biological target: Serine/threonine-protein kinase Nek5 (Homo sapiens) (UniProt Q6P3R8); conditions: Compound concentration 1000.0 nM
[30] = biological target: LIM domain kinase 1 (Homo sapiens) (UniProt P53667); conditions: Compound concentration 1000.0 nM
[31] = biological target: Calcium/calmodulin-dependent protein kinase type IV (Homo sapiens) (UniProt Q16566); conditions: Compound concentration 1000.0 nM
[32] = biological target: Serine/threonine-protein kinase PRP4 homolog (Homo sapiens) (UniProt Q13523); conditions: Compound concentration 1000.0 nM
[33] = biological target: Receptor-interacting serine/threonine-protein kinase 2 (Homo sapiens) (UniProt O43353); conditions: Compound concentration 1000.0 nM
[34] = biological target: Interleukin-1 receptor-associated kinase 4 (Homo sapiens) (UniProt Q9NWZ3); conditions: Compound concentration 1000.0 nM
[35] = biological target: cGMP-dependent protein kinase 2 (Homo sapiens) (UniProt Q13237); conditions: Compound concentration 1000.0 nM
[36] = system: ALK tyrosine kinase receptor (Homo sapiens), Q9UM73 [C1156Y]; conditions: Compound concentration 1000.0 nM
[37] = biological target: Mitogen-activated protein kinase kinase kinase 13 (Homo sapiens) (UniProt O43283); conditions: Compound concentration 1000.0 nM
[38] = biological target: Serine/threonine-protein kinase ULK3 (Homo sapiens) (UniProt Q6PHR2); conditions: Compound concentration 1000.0 nM
[39] = biological target: Serine/threonine-protein kinase tousled-like 1 (Homo sapiens) (UniProt Q9UKI8); conditions: Compound concentration 1000.0 nM
[40] = biological target: Mitogen-activated protein kinase 8 (Homo sapiens) (UniProt P45983); conditions: Compound concentration 1000.0 nM
[41] = system: Epidermal growth factor receptor (Homo sapiens), P00533 [G719S]; conditions: Compound concentration 1000.0 nM
[42] = biological target: Serine/threonine-protein kinase 24 (Homo sapiens) (UniProt Q9Y6E0); conditions: Compound concentration 1000.0 nM
[43] = biological target: Mitogen-activated protein kinase kinase kinase 7 (Homo sapiens) (UniProt O43318); conditions: Compound concentration 1000.0 nM
[44] = biological target: Dual specificity tyrosine-phosphorylation-regulated kinase 1B (Homo sapiens) (UniProt Q9Y463); conditions: Compound concentration 1000.0 nM

Serine/threonine-protein kinase 24 (Homo sapiens), sequence (Q9Y6E0 whole entry, looked up): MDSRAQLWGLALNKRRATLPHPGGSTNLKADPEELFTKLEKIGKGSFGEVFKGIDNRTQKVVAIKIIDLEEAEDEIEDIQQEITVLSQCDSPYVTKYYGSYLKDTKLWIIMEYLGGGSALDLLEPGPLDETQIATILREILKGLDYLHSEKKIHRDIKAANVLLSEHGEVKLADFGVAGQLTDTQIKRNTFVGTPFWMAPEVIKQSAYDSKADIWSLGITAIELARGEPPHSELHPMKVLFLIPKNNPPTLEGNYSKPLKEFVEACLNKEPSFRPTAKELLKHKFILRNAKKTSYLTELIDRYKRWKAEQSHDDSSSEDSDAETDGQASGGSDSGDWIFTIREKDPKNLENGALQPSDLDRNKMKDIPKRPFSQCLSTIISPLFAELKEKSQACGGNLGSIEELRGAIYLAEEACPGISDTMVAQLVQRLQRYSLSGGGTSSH
Calcium/calmodulin-dependent protein kinase type IV (Homo sapiens), sequence (Q16566 whole entry): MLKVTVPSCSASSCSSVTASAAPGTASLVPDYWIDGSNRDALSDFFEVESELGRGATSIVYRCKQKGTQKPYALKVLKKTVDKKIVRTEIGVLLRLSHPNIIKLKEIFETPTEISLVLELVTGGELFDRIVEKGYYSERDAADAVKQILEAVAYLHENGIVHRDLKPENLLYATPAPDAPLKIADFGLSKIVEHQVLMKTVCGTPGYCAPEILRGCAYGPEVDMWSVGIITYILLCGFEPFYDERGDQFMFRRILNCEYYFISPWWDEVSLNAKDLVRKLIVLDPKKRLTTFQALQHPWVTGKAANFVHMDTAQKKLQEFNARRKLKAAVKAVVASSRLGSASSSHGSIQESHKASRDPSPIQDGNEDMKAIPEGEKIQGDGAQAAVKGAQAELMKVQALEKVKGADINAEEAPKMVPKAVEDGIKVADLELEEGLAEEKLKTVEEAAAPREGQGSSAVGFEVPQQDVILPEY
Tyrosine-protein kinase BTK (Homo sapiens), sequence (Q06187 whole entry): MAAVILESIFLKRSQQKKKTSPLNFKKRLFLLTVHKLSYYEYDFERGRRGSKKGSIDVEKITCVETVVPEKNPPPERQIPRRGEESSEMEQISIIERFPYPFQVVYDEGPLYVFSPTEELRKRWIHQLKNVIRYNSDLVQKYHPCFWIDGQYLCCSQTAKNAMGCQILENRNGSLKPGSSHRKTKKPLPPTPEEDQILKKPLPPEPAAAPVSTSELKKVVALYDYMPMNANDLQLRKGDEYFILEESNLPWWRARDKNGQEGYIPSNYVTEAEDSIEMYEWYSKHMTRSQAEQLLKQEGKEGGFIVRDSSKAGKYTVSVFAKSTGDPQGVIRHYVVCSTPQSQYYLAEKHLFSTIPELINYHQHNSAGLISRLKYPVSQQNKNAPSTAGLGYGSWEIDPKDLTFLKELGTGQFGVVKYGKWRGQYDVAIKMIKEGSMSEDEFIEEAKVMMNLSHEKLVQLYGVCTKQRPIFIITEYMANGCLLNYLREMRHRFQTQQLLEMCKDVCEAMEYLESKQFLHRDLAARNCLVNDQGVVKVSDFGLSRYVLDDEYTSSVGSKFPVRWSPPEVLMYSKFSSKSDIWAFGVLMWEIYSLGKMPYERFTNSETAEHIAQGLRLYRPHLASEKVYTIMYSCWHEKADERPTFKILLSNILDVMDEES
Tyrosine-protein kinase Srms (Homo sapiens), sequence (Q9H3Y6 whole entry): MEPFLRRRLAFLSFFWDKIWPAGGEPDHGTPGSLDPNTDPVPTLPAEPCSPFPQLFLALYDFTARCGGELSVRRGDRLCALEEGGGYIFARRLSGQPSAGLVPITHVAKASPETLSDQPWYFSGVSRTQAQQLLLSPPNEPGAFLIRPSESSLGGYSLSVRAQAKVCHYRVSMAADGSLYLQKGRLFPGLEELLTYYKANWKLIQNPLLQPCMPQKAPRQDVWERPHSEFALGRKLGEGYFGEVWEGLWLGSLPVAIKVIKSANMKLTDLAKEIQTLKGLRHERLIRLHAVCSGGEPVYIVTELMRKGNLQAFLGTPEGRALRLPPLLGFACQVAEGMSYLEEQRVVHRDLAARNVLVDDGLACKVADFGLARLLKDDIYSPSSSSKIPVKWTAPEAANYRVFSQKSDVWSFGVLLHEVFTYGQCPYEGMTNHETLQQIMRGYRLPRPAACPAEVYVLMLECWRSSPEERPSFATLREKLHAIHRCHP
Macrophage colony-stimulating factor 1 receptor (Homo sapiens), sequence (P07333 whole entry): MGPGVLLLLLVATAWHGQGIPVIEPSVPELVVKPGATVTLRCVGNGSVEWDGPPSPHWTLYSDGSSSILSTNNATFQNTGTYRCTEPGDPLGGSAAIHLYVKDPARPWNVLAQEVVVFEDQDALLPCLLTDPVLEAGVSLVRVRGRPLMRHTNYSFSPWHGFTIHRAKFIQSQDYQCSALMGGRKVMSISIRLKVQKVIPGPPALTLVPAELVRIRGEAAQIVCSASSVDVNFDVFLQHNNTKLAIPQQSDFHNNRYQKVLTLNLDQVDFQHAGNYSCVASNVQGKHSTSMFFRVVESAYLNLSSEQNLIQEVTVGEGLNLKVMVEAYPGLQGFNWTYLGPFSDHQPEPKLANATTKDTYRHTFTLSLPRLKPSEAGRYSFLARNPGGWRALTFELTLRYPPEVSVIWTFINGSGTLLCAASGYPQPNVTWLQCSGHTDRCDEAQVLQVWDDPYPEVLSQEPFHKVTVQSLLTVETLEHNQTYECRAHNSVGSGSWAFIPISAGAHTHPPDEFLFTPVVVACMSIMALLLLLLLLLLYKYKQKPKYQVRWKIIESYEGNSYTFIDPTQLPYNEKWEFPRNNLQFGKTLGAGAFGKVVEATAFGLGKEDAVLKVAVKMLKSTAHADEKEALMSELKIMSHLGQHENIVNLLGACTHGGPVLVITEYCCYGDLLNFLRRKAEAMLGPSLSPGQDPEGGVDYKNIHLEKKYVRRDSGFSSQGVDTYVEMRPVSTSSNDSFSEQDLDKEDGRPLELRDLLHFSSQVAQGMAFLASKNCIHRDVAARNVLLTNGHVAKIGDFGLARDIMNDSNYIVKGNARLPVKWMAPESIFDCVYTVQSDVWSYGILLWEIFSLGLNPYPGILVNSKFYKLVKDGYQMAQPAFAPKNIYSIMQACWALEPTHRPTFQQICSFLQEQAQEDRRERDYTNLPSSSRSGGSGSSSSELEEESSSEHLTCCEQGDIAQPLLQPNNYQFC
Mitogen-activated protein kinase kinase kinase 13 (Homo sapiens), sequence (O43283 whole entry): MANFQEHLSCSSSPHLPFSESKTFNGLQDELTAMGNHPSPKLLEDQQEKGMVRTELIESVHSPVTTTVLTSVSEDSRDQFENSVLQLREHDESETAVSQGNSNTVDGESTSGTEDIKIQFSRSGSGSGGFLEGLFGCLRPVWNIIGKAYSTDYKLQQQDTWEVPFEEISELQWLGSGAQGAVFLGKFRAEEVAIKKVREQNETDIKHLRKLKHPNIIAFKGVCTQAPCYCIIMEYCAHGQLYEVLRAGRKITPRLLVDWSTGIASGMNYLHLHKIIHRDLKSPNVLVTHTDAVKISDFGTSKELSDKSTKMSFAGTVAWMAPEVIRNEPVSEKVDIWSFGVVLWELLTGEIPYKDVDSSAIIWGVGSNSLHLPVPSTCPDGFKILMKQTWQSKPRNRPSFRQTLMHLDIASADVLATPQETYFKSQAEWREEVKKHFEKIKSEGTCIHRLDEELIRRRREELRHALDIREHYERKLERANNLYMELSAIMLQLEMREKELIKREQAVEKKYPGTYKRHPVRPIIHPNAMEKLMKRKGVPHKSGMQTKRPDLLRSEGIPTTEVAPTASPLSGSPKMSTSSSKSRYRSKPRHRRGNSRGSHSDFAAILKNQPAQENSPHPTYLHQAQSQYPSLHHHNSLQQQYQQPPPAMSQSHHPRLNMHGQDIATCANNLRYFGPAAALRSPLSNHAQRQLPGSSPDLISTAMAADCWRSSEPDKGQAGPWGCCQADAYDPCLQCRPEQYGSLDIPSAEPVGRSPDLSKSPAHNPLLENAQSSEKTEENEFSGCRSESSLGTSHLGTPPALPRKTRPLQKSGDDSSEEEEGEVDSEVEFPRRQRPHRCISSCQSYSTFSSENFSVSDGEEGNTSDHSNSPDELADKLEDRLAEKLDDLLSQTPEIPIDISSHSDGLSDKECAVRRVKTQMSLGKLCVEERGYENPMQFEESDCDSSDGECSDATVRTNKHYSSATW
Serine/threonine-protein kinase 38-like (Homo sapiens), sequence (Q9Y2H1 2-464 limits assumed): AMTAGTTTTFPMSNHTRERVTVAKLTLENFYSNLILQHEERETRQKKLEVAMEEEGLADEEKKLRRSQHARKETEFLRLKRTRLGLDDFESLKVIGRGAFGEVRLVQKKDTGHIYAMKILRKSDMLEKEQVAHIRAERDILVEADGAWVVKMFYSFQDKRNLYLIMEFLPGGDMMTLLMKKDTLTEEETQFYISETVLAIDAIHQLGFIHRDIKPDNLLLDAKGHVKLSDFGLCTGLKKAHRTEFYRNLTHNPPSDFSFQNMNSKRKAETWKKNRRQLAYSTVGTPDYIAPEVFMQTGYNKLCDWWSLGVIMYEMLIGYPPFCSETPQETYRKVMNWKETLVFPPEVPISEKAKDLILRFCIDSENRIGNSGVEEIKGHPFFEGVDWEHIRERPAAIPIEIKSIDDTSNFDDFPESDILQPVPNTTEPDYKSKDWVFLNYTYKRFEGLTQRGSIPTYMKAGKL
Aurora kinase A (Homo sapiens), sequence (O14965 whole entry): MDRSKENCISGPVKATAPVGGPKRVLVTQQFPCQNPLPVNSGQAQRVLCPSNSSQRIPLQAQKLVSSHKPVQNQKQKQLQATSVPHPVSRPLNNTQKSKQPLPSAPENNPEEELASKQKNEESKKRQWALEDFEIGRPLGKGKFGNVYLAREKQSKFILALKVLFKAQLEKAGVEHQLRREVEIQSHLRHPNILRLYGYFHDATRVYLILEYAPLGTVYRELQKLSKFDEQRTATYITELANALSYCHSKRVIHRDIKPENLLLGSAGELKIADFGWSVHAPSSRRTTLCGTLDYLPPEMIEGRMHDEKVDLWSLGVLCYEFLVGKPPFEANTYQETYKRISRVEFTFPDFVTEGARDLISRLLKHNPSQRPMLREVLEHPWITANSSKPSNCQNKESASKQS

With `CC1=C(C#N)C(c2ccc3[nH]nc(C)c3c2)C(C#N)=C(C)N1` [BAY-474] the IC50 [1] was 0.0029 µM (active), the inhibition [2] was -8% and the inhibition [3] was 27%. For the same compound, the inhibition [4] was -2%, the inhibition [5] was 19% and the inhibition [6] was -4%. The inhibition [7] was 19%, the inhibition [8] was 4% and the inhibition [9] was -1%. The inhibition [10] was -10%.

For `CC1=C(C#N)[C@@H](c2ccc3[nH]nc(C)c3c2)C(C#N)=C(c2ccc(Cl)cc2)N1` [BAY-827], the residual activity [11] was 100%, the residual activity [12] was 100% and the residual activity [13] was 97.2%. For the same compound, the residual activity [14] was 92.7%, the inhibition [15] was 4.2% and the pKi [16] was 5.00. It also gave a residual activity [17] of 100%, a residual activity [18] of 100% and a residual activity [19] of 100%. It also gave a residual activity [20] of 100%, a residual activity [21] of 100% and a residual activity [22] of 100%. The residual activity [23] was 93.6%, the residual activity [24] was 100% and the residual activity [25] was 100%. For the same compound, the residual activity [26] was 35.8%, the residual activity [27] was 74.4% and the residual activity [28] was 100%. It also gave a residual activity [29] of 80.3%, a residual activity [30] of 100% and a residual activity [31] of 31.8%. The residual activity [32] was 100%, the residual activity [33] was 92% and the residual activity [34] was 100%. The residual activity [35] was 100%, the residual activity [36] was 100% and the residual activity [37] was 100%. The residual activity [38] was 88.3%, the residual activity [39] was 100% and the residual activity [40] was 65.2%. The residual activity [41] was 86.8%, the residual activity [42] was 100% and the residual activity [43] was 100%. The residual activity [44] was 50.1%.
